≈ marks a conversion by molar mass, not a printed value.
Experiments:
Assay type in all cases: cell-based
[1] = tested on: Escherichia coli ATCC 8739; assay: Minimal Kill Concentration (MKC) assay, 96 well plate; conditions: 20-minute contact time
Procedure: (§1) The MKC assay is a 96 well plate method to determine the minimum concentration of a test material or composition needed to kill Gram-negative and Gram-positive bacteria (Escherichia coli ATCC 8739 and Staphylococcus aureus ATCC 6538, respectively). The bacterial suspensions are prepared from 10× freezer stocks with 15% glycerol. The freezer stocks are centrifuged at 13,000×g (Eppendorf Centrifuge […] No. 5417 05483) for 1 minute. The supernatant is removed, and the cell pellet is resuspended in 1 mL saline (Sodium chloride solution 0.9%, Cytiva REF: Z1376), and then transferred to 9 mL saline. The target cfu/ml is 10^8, which is confirmed via serial diluting and plating on TSA plates (Tryptic Soy Agar-Sigma-Aldrich Cat #22091). Then 50 μL of bacteria is added to each well of a 96 well 0.5 mL V-Bottom plate (Greiner bio-one REF: 786201) to make a bacteria plate, one separate plate for each bacterium. The dilutions of the test compounds are prepared in a separate 96 well plate. The test compounds are tested at six dilutions in duplicates or with no replication diluted across the entire plate. The test compounds are prepared in Dimethyl Sulfoxide (Sigma Aldrich GR ACS Cat. No: MX1458-6) or sterile water at 2× the intended test concentration, and then serially diluted in the appropriate vehicle 1:2 across the plate using a multichannel. 50 μL from the test compound plate is added to each well in the bacteria plate all at once using an Integra VIAFLOW 96 channel pipette (Model: VIAFLO 96) and the Integra 300 μL Head (Part No. 6103). With addition of the 2× compounds bacteria plate, the compounds are diluted to a 1× test concentration. The addition of the test compounds to the bacteria wells starts the 20-minute contact time. The plates are mixed well using a Mix-Mate (Eppendorf SE). After 20 minutes, 1 μL from each well of the bacteria plate is transferred to premade Tryptic Soy Agar (TSA) plates (OmniTray Cell Culture Treated w/Lid Sterile, Cat. No: 165218) for spot plating using the Integra VIAFLOW 96 with the Integra 12.5 μL head (Part No. 6101). Then 4 μL from each well of the bacteria/compound plate is transferred to another 96 well plate containing 36 μL of neutralizer broth Modified Letheen Broth (BD Difco Letheen Broth, Modified REF 263010). The contact time is stopped at 20 minutes once the compound plate is neutralized. The plates are mixed well using a Mix-Mate and then 1 μL of the neutralizer+sample mix is transferred to a TSA OmniTray plate using the Integra VIAFLOW and Integra 12.5 μL head. The TSA spot plates are then incubated overnight for 20 hours at 37° C. in an Incubator. This process is done for both bacteria species. After overnight incubation, the plates are removed from the incubator and the results recorded by observing which dilutions had bacterial kill/growth. The last dilution that had kill for both replicates is recorded as the MKC. A positive control of Benzalkonium chloride (Sigma Aldrich Cat. No.: 12060-5G) and vehicle controls are always included in the test.

[2] = tested on: Staphylococcus aureus ATCC 6538; assay: as above; conditions: 20-minute contact time
Procedure: as §1

[3] = tested on: Staphylococcus aureus ATCC #6538; assay: Minimum Inhibitory Concentration (MIC) assay with Minimum Biocidal Concentration (MBC); conditions: solvent DMSO; for MIC / MBC: Staphylococcus aureus, ATCC6538; for MIC: 24±2 hrs at 35° C., OD<50% of growth control, read-out: S. aureus MIC (ppm); for MBC: read-out: S. aureus MBC (ppm)
Procedure: The Minimum Inhibitory Concentration (MIC) assay is a 96-well high throughput method that determines the minimum concentration of an active required to inhibit the growth of microorganisms. Compounds are evaluated against the following microorganisms: Staphylococcus aureus ATCC #6538 (American Type Culture Collection, Manassas, Virginia, USA). To prepare solutions, the bacteria are streaked on Tryptic Soy Agar (TSA, Becton Dickinson DIFCO™ Tryptic Soy Agar, Franklin Lakes, NJ, USA) and incubated at 30-35° C. for 18-24 hrs. Confluent growth is transferred to saline (0.85% NaCl and turbidometrically adjusted to a target concentration of 10^7-10^8 CFU/ml. This inoculum solution is further diluted 1:1000 in Tryptic Soy Broth (TSB, Becton Dickinson, Franklin Lakes, NJ, USA) for assay use. Two-fold serial dilutions are prepared in Dimethylsulfoxide (DMSO, Thermo Scientific Pierce DMSO, Sequencing Grade) or sterile water for each test sample. In a sterile 96-well plate, each dilution is further diluted in broth inoculum such that each well contained 5% dilution and 95% broth inoculum. Bacteria and yeast plates were incubated on an orbital shaker (Heidolph Titramax 1000 Vibrating Platform Shaker, 200-300 rpm) for 24±2 hrs at 35° C. After incubation, the optical density (OD) of each well is measured in a spectrophotometer (Victor Nivo Multimode Plate Reader) at 600 nm. […] The MBC was determined as the most dilute concentration with no visible growth.

[4] = most dilute concentration with no visible growth on neutralizing agar

Row | SMILES | MKC (ppm) E. coli ([1]; solvent water) [ppm] | MKC (ppm) S. aureus ([2]; solvent water) [ppm] | MIC [3] [µg/mL] | MBC [3, 4] [µg/mL] | MKC (ppm) E. coli ([1]; solvent DMSO) [ppm] | MKC (ppm) S. aureus ([2]; solvent DMSO) [ppm] | S. aureus MBC (ppm) [3, 4] [ppm]
1 | CCCCCC(CC(=O)O)O[C@@H]1O[C@@H](C)[C@H](O)[C@@H](O)[C@H]1O (stereo partly drawn) [RhaC8, 3-(((2R,3R,4R,5R,6S)-3,4,5-trihydroxy-6-methyltetrahydro-2H-pyran-2-yl)oxy)octanoic acid] | >1225 | >1225 | 10000 (≈ 32.6 mM) | > 10000 |  |  | 
2 | CCCCCCCCC[C@@H](O)CC(=O)O [(3R)-3-hydroxydodecanoic acid] | >865 | 865 |  |  |  |  | 
3 | CCCCCC(O)CC(=O)O (racemic) [(±)-3-Hydroxyoctanoic acid] | >641 | >641 |  |  |  |  | 
4 | CCCCCCCCCCCCCC(O)CC(=O)O (racemic) [DL-β-Hydroxypalmitic acid] |  |  |  |  | 136 | >1090 | 
5 | CCCCCCCC(O)CC(=O)O (racemic) [(±)-3-Hydroxydecanoic acid] | 753 | 753 |  | > 1130 |  |  | 
6 | CCCCCCCCCCCC(CC(=O)O)O[C@@H]1O[C@@H](C)[C@H](O)[C@@H](O)[C@H]1O (stereo partly drawn) [RhaC14, 3-(((2R,3R,4R,5R,6S)-3,4,5-trihydroxy-6-methyltetrahydro-2H-pyran-2-yl)oxy)tetradecanoic acid] |  |  | 625 (≈ 1.6 mM) | > 10000 | 781 | 781 | 
7 | CCCCCCCCCC(CC(=O)O)O[C@@H]1O[C@@H](C)[C@H](O)[C@@H](O)[C@H]1O (stereo partly drawn) [RhaC12, 3-(((2R,3R,4R,5R,6S)-3,4,5-trihydroxy-6-methyltetrahydro-2H-pyran-2-yl)oxy)dodecanoic acid] | >1450 | 725 | 1250 (≈ 3.45 mM) | > 10000 |  |  | 
8 | CCCCCCCCCCCC(O)CC(=O)O (racemic) [DL-β-Hydroxymyristic acid] |  |  |  |  | 122 | 244 | 
9 | CCCCCCCC(CC(=O)O)O[C@@H]1O[C@@H](C)[C@H](O)[C@@H](O)[C@H]1O (stereo partly drawn) [RhaC10, 3-(((2R,3R,4R,5R,6S)-3,4,5-trihydroxy-6-methyltetrahydro-2H-pyran-2-yl)oxy)decanoic acid] | >1338 | >1338 | > 10000 | > 10000 |  |  | 
10 | CCCCCCCCCC(O)CC(=O)O (racemic) [DL-β-Hydroxylauric acid] | >865 | >865 |  |  |  |  | 650

Reference: patent US20260000078A1, “ANTI-MICROBIAL SYSTEM” (The Procter & Gamble Company, priority 2024, published 2026)
